Measurements as given in patent publication US9670463B2, “Inhibition and enhancement of reprogramming by chromatin modifying enzymes” (Children's Medical Center Corporation, priority 2011, dated 2017).

Columns and labels:
[1] = system: H3K79 methylation; assay: Total H3K79me2 levels in fibroblasts by western blotting; type: cell-based, human; conditions: 1 uM to 10 uM concentration range, fibroblasts treated 5 days
From the text: In addition to the shRNA mediated knockdown of Dot1L, a small molecule inhibitor of Dot1L catalytic activity was used to further validate the findings^15. […] Data correspond to the average and s.d.; n=3. *P<0.001 compared untreated fibroblasts.

[2] = system: dH1f cells; assay: Reprogramming assay, Tra-1-60+ iPSC colonies from dH1f fibroblasts; type: cell-based, human
Protocol: dH1f cells were first infected with shRNA viruses at high MOI to ensure all cells received at least one vector (Gauged by puromycin resistance of parallel infected wells). 25,000 shRNA-infected dH1f cells were then plated per well in 12-well plates and infected overnight with either retroviral (MOI 2.5) 7 or lentiviral (Addgene #21162, 21164; 100-200 μl supernatant)29 reprogramming factors. For 2-factor reprogramming, Oct4 and Sox2 viruses were used at an MOI of 5. 6 days later, cells were trypsinized and re-plated 1:4 to 1:6 onto 6-well plates. Medium was changed to hES medium daily until Day 21 when plates were fixed. Small molecule inhibitor of Dot1L, EPZ004777 (a gift from Epizyme, Inc., Cambridge, Mass.) was dissolved in DMSO as a 10 mM stock and was added at the indicated concentrations. For Dot1L rescue experiments, an MSCV-based retroviral vector encoding human Dot1L with or without mutations in the SAM binding site (gifts of Y. Zhang) were mutagenized at the shRNA target site using QuikChange II XL Site-Directed Mutagenesis Kit (Agilent Technologies). In certain experiments, Nanog and Lin28 expression was achieved using lentivirus (Addgene #21163). IMR-90 and MRC5 human diploid fibroblasts were purchased from ATCC and 50000 cells were used in reprogramming experiments. Statistical analysis was performed using a Student's t-test.
Immunostaining of reprogramming plates were performed as described^8. Briefly, cells were fixed with 4% p-formaldehyde and stained with biotin-anti-Tra-1-60 (eBioscience, #13-8863-82, 1:250) and streptavidin horseradish peroxidase (Biolegend, #405210, 1:500) diluted in PBS (3%), FCS (0.3%) Triton X-100. Staining was developed with the Vector labs DAB kit (#SK-4100), and iPSC colonies quantified with ImageJ software. For the characterization of shDot1l-iPS cells, single colonies were put onto MEF coated 96-well plates. The plates were fixed for 20 min with 4% p-formaldehyde/PBS (+/+), washed several times with PBS (+/+) and incubated overnight at 4° C. with primary antibody and Hoechst diluted in 3% donkey serum/3% BSA Fraction VII/0.01% Triton X-100/PBS (+/+); Hoechst, Invitrogen #H3570 (1:20,000), Tra-1-81/A488 (BD #560174), SSEA-4/A647 (BD #560219), Tra-1-60/A647 (BD #560122), Nanog, rabbit polyclonal (Abcam #ab21624), Oct4, rabbit polyclonal (Abcam #ab19857). For Nanog and Oct4, donkey anti-rabbit IgG/A555 (Molecular Probes #A31572) secondary antibody was used. After several washes with PBS (+/+), images were acquired using a BD Pathway 435 imager equipped with a ×10 objective.

[3] = system: Oct4-GFP MEFs; assay: Reprogramming of OSKM transduced Oct4-GFP MEFs, AP+ colonies; type: cell-based, mouse; conditions: iDot1L 10 um
Protocol: It was assessed whether these observations can be extended to the murine system. It was observed that, similar to human fibroblasts, iDot1L treatment led to 3-fold enhancement of reprogramming of Oct4-GFP MEFs (FIG. 3D). […] Data correspond to the average and s.d.; n=4. *P<0.001 compared untreated MEFs. Representative AP-stained wells and GFP-positive iPS colonies derived from each condition are shown in the lower panel.

[4] = system: iPS-derived secondary MEFs; assay: Reprogramming of inducible iPS-derived secondary MEFs, AP+ colonies; type: cell-based, mouse; conditions: doxycycline, iDot1L 10 um
[5] = system: H3K79me2; assay: ChIP-seq for H3K79me2 on OSKM expressing fibroblasts; type: cell-based, human; conditions: iDot1L 10 uM; 6 days after OSKM
Protocol: ChIP-seq was performed as described with slight modifications^25. 300 000 cells were fixed at room temperature in PBS 1% formalin (v/v) for 10 minutes with gentle agitations. Fixation was stopped by the addition of glycine (125 mM final concentration) and agitation for 5 min at room temperature. Fixed cells were washed twice in ice-cold PBS, resuspended in 100 ul of SDS lysis buffer (1% SDS, 10 mM EDTA, 50 mM Tris-HCl, pH 8.1). Chromatin was sheared by sonication to about 100-500 bp fragments using bioruptor (diagenode, Denville, N.J.) and diluted tenfold with dilution buffer (0.01% SDS, 1.1% Triton-X100, 1.2 mM EDTA, 16.7 mM Tris-HCl, pH 8.1, 167 mM NaCl). Antibodies against specific histone modifications was added to sonicated chromatin solution and incubated at 4 degree overnight with gentle agitation. The antibodies used were anti-H3K27me3 (Millipore 07-449) and anti-H3K79me2 (abcam 3594). Immune complexes were collected by incubation with 20 ul of Protein A/G agarose beads (Millipore) for an hour at 4 degree with gentle agitation. […]

[6] = iDot1L 10 uM, OSKM, Tra-1-60+ colonies at 21 days

## CC(C)N(CCCNC(=O)Nc1ccc(C(C)(C)C)cc1)C[C@H]1O[C@@H](n2ccc3c(N)ncnc32)[C@H](O)[C@@H]1O.Cl [EPZ004777]
[1]
  H3K79 methylation: abrogated H3K79 methylation robustly
[2]; OSKM, dH1f cells treated for 21 days, relative to untreated
  enhancement of reprogramming of human fibroblasts: 3-4 fold
[2]; iDot1L 10 uM plus Dot1L shRNA, OSKM, 21 days
  reprogramming efficiency, inhibitor combined with Dot1L knockdown: did not result in a further increase of reprogramming efficiency
[2]; [6]
  reprogramming, pretreatment for 5 days prior to OSKM transduction: no effect
  reprogramming, treatment in the first or the second week: sufficient to enhance reprogramming
[2]; iDot1L 10 uM, Tra-1-60 staining 21 days after reprogramming
  reprogramming in the absence of Klf4, c-Myc or both: allowed reprogramming in the absence of either Klf4 or Myc and was able to replace both of these exogenous factors
[3]
  enhancement of reprogramming of Oct4-GFP MEFs: 3 fold
[4]
  reprogramming efficiency of secondary MEFs: increased reprogramming efficiency
[5]
  K79me2 levels on genes: reduced on almost all genes
